From patent US20070293484A1, “Thiophene Heteroaryl Amines” (SUGEN, INC., priority 2004, published 2007)
Several values for one entry are separate records, joined by “and”; a condition that tells them apart may be missing. Identical values can stand only once.

Columns and labels:
GST-Flk1 = target: T1, GST-Flk1 (Mus musculus, UniProt P35918); test: GST-FLK-1 bioassay (ELISA, tyrosine kinase activity on poly(glu,tyr)); type: biochemical
T1 construct: GST-Flk1cd purified from sf9 recombinant baculovirus transformation (SUGEN, Inc.); host or cells: Sf9 insect cells (recombinant baculovirus)
Procedure: The assays described herein are performed in an ELISA (Enzyme-Linked Immunosorbent Sandwich Assay) format (Voller, et al., 1980, “Enzyme-Linked Immunosorbent Assay,” Manual of Clinical Immunology, 2d ed., Rose and Friedman, Am. Soc. Of Microbiology, Washington, D.C., pp. 359-371). The general procedure is as follows: a compound is introduced to cells expressing the test kinase, either naturally or recombinantly, for a selected period of time after which, if the test kinase is a receptor, a ligand known to activate the receptor is added. The cells are lysed and the lysate is transferred to the wells of an ELISA plate previously coated with a specific antibody recognizing the substrate of the enzymatic phosphorylation reaction. Non-substrate components of the cell lysate are washed away and the amount of phosphorylation on the substrate is detected with an antibody specifically recognizing phosphotyrosine compared with control cells that were not contacted with a test compound.
This assay analyzes the tyrosine kinase activity of GST-Flk1 on poly(glu,tyr) peptides.
• 1. Corning 96-well ELISA plates (Corning Catalog No. 5805-96). • 2. poly(glu,tyr) 4:1, lyophilizate (Sigma Catalog #P0275). • 3. Preparation of poly(glu,tyr)(pEY) coated assay plates: Coat 2 ug/well of poly(glu,tyr)(pEY) in 100 μL PBS, hold at room temperature for 2 hours or at 4° C. overnight. Cover plates well to prevent evaporation. • 4. PBS Buffer: for 1 L, mix 0.2 g KH2PO4, 1.15 g Na2HPO4, 0.2 g KCl and 8 g NaCl in approx. 900 ml dH2O. When all reagents have dissolved, adjust the pH to 7.2 with HCl. Bring total volume to 1 L with dH2O. • 5. PBST Buffer: to 1 L of PBS Buffer, add 1.0 ml Tween-20. • 6. TBB—Blocking Buffer: for 1 L, mix 1.21 g TRIS, 8.77 g NaCl, 1 ml TWEEN-20 in approximately 900 ml dH2O. Adjust pH to 7.2 with HCl. Add 10 g BSA, stir to dissolve. Bring total volume to 1 L with dH2O. Filter to remove particulate matter. • 7. 1% BSA in PBS: To make a 1× working solution, add 10 g BSA to approx. 990 ml PBS buffer, stir to dissolve. Adjust total volume to 1 L with PBS buffer, filter to remove particulate matter. • 8. 50 mM Hepes pH 7.5. • 9. GST-Flk1cd purified from sf9 recombinant baculovirus transformation (SUGEN, Inc.). • 10. 4% DMSO in dH2O. • 11. 10 mMATP in dH2O. • 12. 40 mM MnCl2 • 13. Kinase Dilution Buffer (KDB): mix 10 ml Hepes (pH 7.5), 1 ml 5M NaCl, 40 μL 100 mM sodium orthovanadate and 0.4 ml of 5% BSA in dH2O with 88.56 ml dH2O. • 14. NUNC 96-well V bottom polypropylene plates, Applied Scientific Catalog #AS-72092 • 15. EDTA: mix 14.12 g ethylenediaminetetraacetic acid (EDTA) to approx. 70 ml dH2O. Add 10 N NaOH until EDTA dissolves. Adjust pH to 8.0. Adjust total volume to 100 ml with dH2O. • 16. 1^0 Antibody Dilution Buffer: mix 10 ml of 5% BSA in PBS buffer with 89.5 ml TBST. • 17. Anti-phosphotyrosine monoclonal antibody conjugated to horseradish peroxidase (PY99 HRP, Santa Cruz Biotech). • 18. 2,2′-Azinobis(3-ethylbenzthiazoline-6-sulfonic acid (ABTS, Moss, Cat. No. ABST). • 19. 10% SDS. Procedure: • 1. Coat Corning 96-well ELISA plates with 2 μg of polyEY peptide in sterile PBS as described in step 3 of Materials and Reagents. • 2. Remove unbound liquid from wells by inverting plate. Wash once with TBST. Pat the plate on a paper towel to remove excess liquid. • 3. Add 100 μl of 1% BSA in PBS to each well. Incubate, with shaking, for 1 hr. at room temperature. • 4. Repeat step 2. • 5. Soak wells with 50 mM HEPES (pH7.5) (150 μl/well). • 6. Dilute test compound with dH2O/4% DMSO to 4 times the desired final assay concentration in 96-well polypropylene plates. • 7. Add 25 μl diluted test compound to ELISA plate. In control wells, place 25 μl of dH2O/4% DMSO. • 8. Add 25 μl of 40 mM MnCl2 with 4×ATP (2 μM) to each well. • 9. Add 25 μl 0.5M EDTA to negative control wells. • 10. Dilute GST-Flk1 to 0.005 μg (5 ng)/well with KDB. • 11. Add 50 μl of diluted enzyme to each well. • 12. Incubate, with shaking, for 15 minutes at room temperature. • 13. […]

PDGFR = target: T2, PDGFR (Homo sapiens, UniProt P09619); test: PDGFR bioassay (ELISA, in vitro kinase activity); type: biochemical; details: PDGFR-β expressing NIH 3T3 cell lysate; read-out: IC50 (μM) PDGF-R
T2 construct: SUGEN, Inc; host or cells: NIH 3T3 cell lysate; receptor captured on plate with monoclonal anti-PDGFR antibody 28D4C10
T2 sequence (P09619 33-1106, species assumed): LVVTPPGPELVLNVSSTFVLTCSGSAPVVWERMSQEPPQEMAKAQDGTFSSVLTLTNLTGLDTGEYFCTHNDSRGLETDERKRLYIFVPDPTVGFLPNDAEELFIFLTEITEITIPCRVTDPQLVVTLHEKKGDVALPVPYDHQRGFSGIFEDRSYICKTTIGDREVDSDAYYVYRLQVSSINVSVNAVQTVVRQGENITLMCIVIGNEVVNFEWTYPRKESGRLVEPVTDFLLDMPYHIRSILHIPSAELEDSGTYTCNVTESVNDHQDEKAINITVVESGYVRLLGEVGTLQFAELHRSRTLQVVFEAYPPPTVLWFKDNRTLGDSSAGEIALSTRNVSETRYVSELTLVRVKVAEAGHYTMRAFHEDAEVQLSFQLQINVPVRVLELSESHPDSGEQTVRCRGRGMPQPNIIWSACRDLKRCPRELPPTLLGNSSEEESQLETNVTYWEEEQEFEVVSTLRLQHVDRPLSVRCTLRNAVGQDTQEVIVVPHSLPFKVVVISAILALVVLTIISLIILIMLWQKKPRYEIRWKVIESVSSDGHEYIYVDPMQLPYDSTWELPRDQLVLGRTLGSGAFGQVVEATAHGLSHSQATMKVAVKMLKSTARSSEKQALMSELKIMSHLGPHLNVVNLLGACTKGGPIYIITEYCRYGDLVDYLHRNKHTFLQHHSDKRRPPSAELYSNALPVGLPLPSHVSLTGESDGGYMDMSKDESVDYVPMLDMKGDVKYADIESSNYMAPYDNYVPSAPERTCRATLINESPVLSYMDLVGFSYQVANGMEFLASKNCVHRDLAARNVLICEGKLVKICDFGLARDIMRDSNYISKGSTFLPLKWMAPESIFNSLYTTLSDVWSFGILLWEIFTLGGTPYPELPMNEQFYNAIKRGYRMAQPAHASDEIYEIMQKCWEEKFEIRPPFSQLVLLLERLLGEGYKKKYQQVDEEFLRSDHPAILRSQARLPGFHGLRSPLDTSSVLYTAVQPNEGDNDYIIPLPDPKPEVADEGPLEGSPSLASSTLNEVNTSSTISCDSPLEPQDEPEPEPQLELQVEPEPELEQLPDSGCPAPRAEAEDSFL

T1 sequence (P35918 784-1345 limits assumed): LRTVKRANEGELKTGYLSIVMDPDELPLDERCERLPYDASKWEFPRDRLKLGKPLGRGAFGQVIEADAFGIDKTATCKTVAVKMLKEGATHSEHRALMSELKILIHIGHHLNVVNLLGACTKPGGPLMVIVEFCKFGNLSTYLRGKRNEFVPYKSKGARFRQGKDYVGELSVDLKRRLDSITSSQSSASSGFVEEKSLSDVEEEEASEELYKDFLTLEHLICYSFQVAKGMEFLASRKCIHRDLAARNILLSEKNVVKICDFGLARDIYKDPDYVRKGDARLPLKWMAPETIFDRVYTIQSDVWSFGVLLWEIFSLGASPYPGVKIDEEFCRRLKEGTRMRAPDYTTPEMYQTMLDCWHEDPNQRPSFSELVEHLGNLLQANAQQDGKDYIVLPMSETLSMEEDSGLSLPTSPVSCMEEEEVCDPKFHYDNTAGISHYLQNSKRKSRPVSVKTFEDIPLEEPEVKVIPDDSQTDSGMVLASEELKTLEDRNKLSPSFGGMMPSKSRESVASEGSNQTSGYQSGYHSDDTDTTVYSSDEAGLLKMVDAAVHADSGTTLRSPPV

Compound | IC50 (GST-Flk1) | IC50 (PDGFR)
CN1CCN(CC(=O)Nc2ccc(Nc3ncc(-c4ccsc4)cn3)cc2)CC1 [Example 23, 2-(4-methylpiperazin-1-yl)-N-{4-[(5-thien-3-ylpyrimidin-2-yl)amino]phenyl}acetamide] | 5.1 µM | 0.55 µM
O=C(CN1CCCC1)Nc1cccc(Nc2ncc(-c3ccsc3)cn2)c1 [Example 62, 2-pyrrolidin-1-yl-N-[3-(5-thiophen-3-yl-pyrimidin-2-ylamino)-phenyl]-acetamide] | 2.8 µM | 0.2 µM
CCN(CC)CC(=O)Nc1cccc(Nc2cnc(-c3ccsc3)cn2)c1 [Example 41, N-(3-(5-(thiophen-3-yl)pyrazin-2-ylamino)phenyl)-2-(diethylamino)acetamide] | > 20 µM | > 20 µM
O=C(Nc1ccc(Nc2ncc(-c3ccsc3)cn2)cc1)N1CCOCC1 [Example 34, N-{4-[(5-thien-3-ylpyrimidin-2-yl)amino]phenyl}morpholine-4-carboxamide] | 4.7 µM | 1 µM
COc1ccc(Nc2ncc(-c3ccsc3)cn2)cc1 [Example 5, N-(4-methoxyphenyl)-5-thien-3-ylpyrimidin-2-amine] | > 20 µM | 0.55 µM
Oc1ccc(Nc2ncc(-c3cccs3)cn2)cc1 [Example 15, 4-(5-thiophen-2-yl-pyrimidin-2-ylamino)-phenol] | 4.61 µM | 1.7 µM
O=C(CNCCN1CCOCC1)Nc1ccc(Nc2ncc(-c3ccsc3)cn2)cc1 [Example 25, 2-(2-morpholinoethylamino)-N-(4-(5-(thiophen-3-yl)pyrimidin-2-ylamino)phenyl)acetamide] | 5.4 µM | 0.47 µM
CN1CCN(Cc2ccc(C(=O)Nc3ccc(Nc4ncc(-c5ccsc5)cn4)cc3)cc2)CC1 [Example 12, 4-[(4-methylpiperazin-1-yl)methyl]-N-{4-[(5-thien-3-ylpyrimidin-2-yl)amino]phenyl}benzamide] | 2.52 µM | 0.26 µM
CC(=O)c1ccc(-c2cnc(Nc3cccc(N)c3)nc2)s1 [Example 19, 1-(5-{2-[(3-aminophenyl)amino]pyrimidin-5-yl}thien-2-yl)ethanone] | 8.6 µM | 2.4 µM
O=C(CN1CCCC1)Nc1ccc(Nc2ncc(-c3ccsc3)cn2)cc1 [Example 29, 2-pyrrolidin-1-yl-N-{4-[(5-thien-3-ylpyrimidin-2-yl)amino]phenyl}acetamide] | 4 µM | 0.43 µM
O=C(CN1CCCC1CN1CCCC1)Nc1cccc(Nc2ncc(-c3ccsc3)cn2)c1 (stereo not drawn) [Example 47, N-(3-(5-(thiophen-3-yl)pyrimidin-2-ylamino)phenyl)-2-(2-((pyrrolidin-1-yl)methyl)pyrrolidin-1-yl)acetamide] | 2.3 µM | 0.18 µM
CCN(CC)CCNC(=O)Nc1ccc(Nc2ncc(-c3ccsc3)cn2)cc1 [Example 32, N-[2-(diethylamino)ethyl]-N′-{4-[(5-thien-3-ylpyrimidin-2-yl)amino]phenyl}urea] | 5.7 µM | 0.53 µM

Further lines, results first:

IC50 (GST-Flk1) | IC50 (PDGFR) | Compound
16.2 µM | 7.39 µM | O=C(O)c1cccc(Nc2ncc(-c3ccsc3)cn2)c1 [Example 7, 3-[(5-thien-3-ylpyrimidin-2-yl)amino]benzoic acid]
2.4 µM | 0.06 µM | O=C(CNCCN1CCS(=O)(=O)CC1)Nc1cccc(Nc2ncc(-c3ccsc3)cn2)c1 [Example 60, 2-[2-(1,1-dioxo-1λ^6-thiomorpholin-4-yl)-ethylamino]-N-[3-(5-thiophen-3-yl-pyrimidin-2-ylamino)-phenyl]-acetamide]
3.5 µM | 0.66 µM | CC(=O)Nc1cccc(Nc2ncc(-c3ccsc3)cn2)c1 [Example 36, N-{3-[(5-thien-3-ylpyrimidin-2-yl)amino]phenyl}acetamide]
1.6 µM | 0.36 µM | O=C(NCCN1CCS(=O)(=O)CC1)Nc1cccc(Nc2ncc(-c3ccsc3)cn2)c1 [Example 52, 1-[2-(1,1-dioxo-1λ^6-thiomorpholin-4-yl)ethyl]-3-[3-(5-thiophen-3-yl-pyrimidin-2-ylamino)-phenyl]-urea]
> 20 µM | 15.2 µM | O=C(O)c1cccc(Nc2ncc(-c3cccs3)cn2)c1 [Example 17, 3-[(5-thien-2-ylpyrimidin-2-yl)amino]benzoic acid]
4.5 µM | 0.52 µM | Oc1ccc(Nc2ncc(-c3ccsc3)cn2)cc1 [Example 1, 4-[(5-thien-3-ylpyrimidin-2-yl)amino]phenol]
2.5 µM | 0.94 µM | O=C(CN1CCOCC1)Nc1cccc(Nc2ncc(-c3ccsc3)cn2)c1 [Example 61, 2-morpholin-4-yl-N-[3-(5-thiophen-3-yl-pyrimidin-2-ylamino)-phenyl]-acetamide]
3.5 µM | 0.21 µM | O=C(Nc1cccc(Nc2ncc(-c3ccsc3)cn2)c1)N1CCCC1CN1CCCC1 (stereo not drawn) [Example 48]
> 20 µM | 0.99 µM | Nc1ccc(C(=O)Nc2ccc(Nc3ncc(-c4cccs4)cn3)cc2)cc1 [Example 16, 4-amino-N-{4-[(5-thien-2-ylpyrimidin-2-yl)amino]phenyl}benzamide]
2.5 µM and 4 µM | 0.08 µM and 0.43 µM | CN1CCN(CCNCC(=O)Nc2cccc(Nc3ncc(-c4ccsc4)cn3)c2)CC1 [Example 58, 2-[2-(4-methyl-piperazin-1-yl)-ethylamino]-N-[3-(5-thiophen-3-yl-pyrimidin-2-ylamino)-phenyl]-acetamide]
> 20 µM | > 20 µM | O=C(CN1CCOCC1)Nc1cccc(Nc2cnc(-c3ccsc3)cn2)c1 [Example 42, 2-morpholin-4-yl-N-{3-[(5-thien-3-ylpyrazin-2-yl)amino]phenyl}acetamide]
> 20 µM | 0.15 µM | c1cc(-c2cnc(Nc3ccc(N4CCOCC4)cc3)nc2)cs1 [Example 3, N-(4-morpholin-4-ylphenyl)-5-thien-3-ylpyrimidin-2-amine]
> 20 µM | 0.5 µM | Nc1ccc(C(=O)Nc2ccc(Nc3ncc(-c4ccsc4)cn3)cc2)cc1 [Example 4, 4-amino-N-{4-[(5-thien-3-ylpyrimidin-2-yl)amino]phenyl}benzamide]
2 µM | 0.12 µM | O=C(NCC(O)CN1CCOCC1)Nc1cccc(Nc2ncc(-c3ccsc3)cn2)c1 (stereo not drawn) [Example 51, 1-(2-hydroxy-3-morpholin-4-yl-propyl)-3-[3-(5-thiophen-3-yl-pyrimidin-2-ylamino)-phenyl]-urea]
> 20 µM | > 20 µM | Nc1cccc(Nc2ncc(-c3csc4ccccc34)cn2)c1 [Example 20, N-[5-(1-benzothien-3-yl)pyrimidin-2-yl]benzene-1,3-diamine]
